Experimental data reported in US20250154288A1, “CYTOTOXICITY TARGETING CHIMERAS FOR C-C CHEMOKINE RECEPTOR 2-EXPRESSING CELLS” (GLAXOSMITHKLINE INTELLECTUAL PROPERTY DEVELOPMENT LIMITED, priority 2022, published 2025).

Legend:
[1] = target: T1, CHOK1 cells engineered to overexpress human CCR2 (Homo sapiens, UniProt P41597); assay: Antibody Dependent Cellular Cytotoxicity (ADCC) Reporter Assay; assay type: cell-based; conditions: with anti-cotinine antibody (human IgG1 Fc, S239D/I332E); Jurkat FcγRIIIa NFAT-luciferase reporter cells; average if several runs; read-out: ADCC Reporter Assay pEC50 (converted)
T1 construct: expressed in transfected cells; host or cells: CHOK1
Protocol: An antibody dependent cellular cytoxocity reporter assay was conducted using the following four assay components: (i) ARM compound of Formula (I) targeting CCR2 (concentrations ranging from 1 pM to 10 μM) (ii) anti-cotinine antibody having a heavy chain sequence of SEQ ID NO: 11 and a light chain sequence of SEQ ID NO: 12 (rabbit variable region with human IgG1 Fc domain containing a DE mutation (S239D/I332E)) (concentrations ranging from 0.01 μg/mL to 200 μg/mL); (iii) target cells: CHOK1 cells engineered to overexpress either human CCR2 (typically 1000-20,000 cells per well) and (iv) reporter cells: Jurkat cells engineered to express FcγRIIIa with the reporter gene luciferase under the control of the NFAT promoter (typically 3000-75,000 cells per well). Reagents were combined in a final volume of 20 μL in a 384-well tissue culture treated plate. All four assay components were incubated together for about 12-18 hours. Thereafter, BioGlo Detection reagent (Promega) was added to the wells to lyse the cells and provide a substrate for the luciferase reporter protein. Luminescence signal was measured on a microplate reader and signal:background was calculated by dividing the signal of a test well by the signal obtained when no heterobivalent compound of Formula (I) was added. EC50 calculations were done using Graphpad Prism Software, specifically a nonlinear regression curve fit (Y=Bottom+(Top−Bottom)/(1+10 ^((Log EC50−X)*HillSlope))).
ARMs compounds of Formula (I) of the invention were tested for ADCC activity in the above assay in or more experimental runs and the results are shown in Table 3 below. Potency of the compounds of Formula (I) of the invention is reported as a pEC50 value. The pEC50 value is the negative log of the EC50 value, wherein the EC50 value is the half maximal effective concentration measured in molar (M). For compounds tested in more than one experimental run, the pEC50 value is reported as an average.

[2] = system: CCR2 expressing cells (CD11b+Ly6c+ Hi) in peripheral blood; assay: In Vivo Depletion Assay (flow cytometry of peripheral blood); set-up: species or system Human CCR2 (hCCR2) knock-in mice; conditions: hCCR2 knock-in mice; IV 0.1 mpk compound + 10 mpk anti-cotinine antibody (mouse IgG2a Fc); peripheral blood at 48 hr
Protocol: (§1) Human CCR2 (hCCR2) knock-in mice (057 background) were dosed intravenously with a PBS solution containing a compound of Formula (I) to measure depletion of CCR2 expressing cells in peripheral blood. Peripheral blood from IV dosed mice was also analyzed to determine PK properties of the ARM compounds of Formula (I).
Stock solution preparation: Stock solutions of compounds of Formula (I) were prepared at 20 mg/mL and 100 mg/mL in DMSO for PK/PD and dose tolerability studies respectively. Stock solutions were stored at −20° C. until further usage.
Formulations preparation: On the day of experiment, the stock solution of the compound of Formula (I) was removed from storage at −20° C. and thawed at room temperature. Anti-cotinine antibody having a heavy chain sequence of SEQ ID NO: 13 and a light chain sequence of SEQ ID NO: 14 (rabbit variable region sequence with mouse IgG2a Fc domain), if required was removed from storage at −80° C. and thawed at room temperature. Antibody vials were immediately transferred into wet ice after thawing. Compounds of Formula (I) were further diluted in DMSO as per experimental requirements.
Formulation composition: The formulation composition was Saline: DMSO: PBS. Saline was added based on the quantity required and then stock solution of the compound of Formula (I) prepared in DMSO, followed by addition of antibody in PBS. Formulations were incubated at room temperature for 30 minutes before administration to the mouse. DMSO was used at 1 to 2% (v/v) in the final formulation.
(§2) Administration to Animal: Solution formulation of antibody and compound of Formula (I) was injected (bolus injection) to the restrained mouse in the right/left lateral tail vein. Animals were dosed with 0.1 milligram per kilogram (mpk) of the compound of Formula (I) and 10 mpk of the anti-cotinine antibody.
(§3) Terminal bleeding at end of experiment (48 hr): Approximately 250 μL of blood in K2EDTA tube and approximately 250 μL of blood in SST (serum separation tube) was collected from each mouse through retro-orbital bleeding under deep isoflurane anesthesia. After bleeding, each mouse was sacrificed by cervical dislocation. The blood distribution at termination was determined as follows: • For PK: 50 μL of K2EDTA blood was transferred to another tube for PK • Flow cytometry: Remaining blood (˜200 μL) was used for flow cytometry analysis. • For serum collection: serum separator tubes (BD) were centrifuged at 4° C., 5000 rpm for 15 minutes. Approximately 100 μL serum was separated and stored at −80° C. for further usage. • Blood drug concentration: Samples collected at the various timepoints (0.25 hr, 2 hr, 24 and 48 hr) were analyzed to determine blood drug concentration.
CCR2 depletion in peripheral blood was determined by flow cytometry. Briefly, peripheral blood was collected from all animals at the end of study termination and processed. Blood samples were lysed using 1×RBC Lysis buffer and the resulting cell pellet was washed twice in FACS buffer (HBSS containing 5% FBS). Cells were subjected to Fc blocking using mouse Fc block from Biolegend (Trustain, anti-mouse CD16/32, Cat: 101319) to block non-specific binding followed by surface staining for immune markers (CD45, CD3, CD11b, Ly6C, human CCR2). Surface staining was done for 30 minutes in ice and cells were washed twice to remove unbound antibodies. Cells were stained with 7AAD to determine viability and acquired on BD FACSVerse flow cytometer. Appropriate FMO controls and single-color controls were included in the experiment for gating and compensation respectively.
Percent depletion of CD11b+Ly6c+ Hi cells and CCR2 expression for the different treatment groups was determined. The results are shown below in Table 4 and are reported as percent (%) depletion of CCR2 expressing cells.

[3] = Blood drug concentration analysis (LC-MS/MS) in In Vivo Depletion Assay; conditions: human CCR2 (hCCR2) knock-in, 057 background, mouse, whole blood, hCCR2 knock-in mice, IV 0.1 mpk compound + 10 mpk anti-cotinine antibody, 48 hours post-dose, read-out: Exposure of Compound of Formula (I) 48 hours post-dose
Protocol: as §1, §2
Collection of Blood for PK: Blood was collected at time points 0.25 hour, 2 hours, and […] following administration (50 μL/time point) through retro-orbital bleeding under mild isoflurane anesthesia.
as §3
Drug concentration in blood samples was determined by an LC-MS/MS-based bioanalytical method developed at Syngene. Samples were analyzed on Q-Trap, API-5500 LC-MS/MS system coupled with Exion UHPLC system from SCIEX, USA operated in multiple reaction monitoring mode employing electrospray ionization technique in positive polarity. Analyte and internal standard peaks were resolved on Synergi Polar, 75×2.0 mm, 4μ column using mobile phase 10 mM Ammonium acetate in Milli-Q water as phase A and 0.1% Formic acid in acetonitrile as Phase B. Gradient elution was performed with initial composition 95% Phase A at 0.0 min, holding it for 0.2 minutes, ramping to 5% by 1.0 minute, keeping the same for next 0.5 minutes and coming back to 95% by 1.6 minutes. The total run time was 2 minutes.
Working dilutions for calibration curve and quality control standards were prepared by serially diluting 20 mg/mL stock solution with DMSO. Spiked concentrations for calibration curve in the whole blood ranged from 1 ng/mL to 1000 ng/mL. The working solution of internal standard (Verapamil, 25 ng/mL) was prepared in acetonitrile. 10 μL of the study sample and calibration curve, quality control, and blank whole blood samples were aliquoted in 96 deep well plates for processing. 10 μL of Milli-Q water was added to all the samples and briefly vortexed to initiate complete hemolysis. 10 μL of 20 mM dithiothreitol (OTT) was added to all the samples and incubated for 30 minutes at 37° C. The addition of DTT enhanced the recovery of ARM compounds of Formula (I) from the biological matrix. 300 μL of working internal standard solution was added to all samples except total blank and wash samples, where 300 μL of acetonitrile was added. All the samples were vortex mixed for 5 minutes, followed by centrifugation at 4000 rpm for 10 minutes at 4° C. Supernatants were transferred to the loading plate and injected 3 μL to LC-MS/MS system for analysis. The results are shown below in Table 4 and are reported as compound exposure 48 hours post-dose

Row | SMILES | EC50 [1] | % Depletion of CCR2 expressing cells [2] | concentration at 48 h [3]
1 | CO[C@@H]1COCC[C@@H]1N[C@@H]1CC[C@](CCCNC(=O)[C@H]2CC[C@H](NC(=O)CCCO[C@H]3CC[C@@H](OCCNC(=O)[C@H]4CC(=O)N(C)[C@@H]4c4cccnc4)CC3)CC2)(C(=O)N2CCc3ncc(C(F)(F)F)cc3C2)C1 [Example 5, (2S,3S)-N-(2-(((1S,4R)-4-(4-(((1S,4R)-4-((3-((1S,3R)-3-(((3S,4S)-3-Methoxytetrahydro-2H-pyran-4-yl)amino)-1-(3-(trifluoromethyl)-5,6,7,8-tetrahydro-1,6-naphthyridine-6-carbonyl)cyclopentyl)propyl)carbamoyl)cyclohexyl)amino)-4-oxobutoxy)cyclohexyl)oxy)ethyl)-1-methyl-5-oxo-2-(pyridin-3-yl)pyrrolidine-3-carboxamide] | 0.158 nM | 98.41% | 95.4 ng/mL
2 | CO[C@@H]1COCC[C@@H]1N[C@@H]1CC[C@@](C(=O)N2CCc3nc(CCCCNC(=O)[C@H]4CC[C@H](NC(=O)CCCO[C@H]5CC[C@H](OCCNC(=O)[C@H]6CC(=O)N(C)[C@@H]6c6cccnc6)CC5)CC4)c(C(F)(F)F)cc3C2)(C(C)C)C1 [Example 12, (2S,3S)-N-(2-(((1R,4S)-4-(4-(((1r,4R)-4-((4-(6-((1S,3R)-1-Isopropyl-3-(((3S,4S)-3-methoxytetrahydro-2H-pyran-4-yl)amino)cyclopentane-1-carbonyl)-3(trifluoromethyl)-5,6,7,8-tetrahydro-1,6-naphthyridin-2-yl)butyl)carbamoyl)cyclohexyl)amino)-4oxobutoxy)cyclohexyl)oxy)ethyl)-1-methyl-5-oxo-2-(pyridin-3-yl)pyrrolidine-3 carboxamide] | 0.631 nM | 95.4% | 33.3 ng/mL
